PubChem BioAssay (NCI)
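Exposure lasted 48 hours, with cells grown in 96-well plates and compounds tested at five concentrations. At the GI50, growth is halved. TGI: concentration producing complete growth inhibition.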

What was measured:
Test in all cases: NCI tumour cell line growth inhibition, 48 h
MALME-3M melanoma = test system: MALME-3M melanoma
OVCAR-8 ovarian = test system: OVCAR-8 ovarian
RXF 393 renal = test system: RXF 393 renal
MCF7 breast = test system: MCF7 breast
SF-539 CNS = test system: SF-539 CNS
OVCAR-3 ovarian = test system: OVCAR-3 ovarian
OVCAR-4 ovarian = test system: OVCAR-4 ovarian
TK-10 renal = test system: TK-10 renal
NCI-H522 lung = test system: NCI-H522 lung
SN12C renal = test system: SN12C renal
786-0 renal = test system: 786-0 renal
A549 NSCLC = test system: A549 NSCLC
LOX IMVI melanoma = test system: LOX IMVI melanoma
DU-145 prostate = test system: DU-145 prostate
RPMI-8226 leukemia = test system: RPMI-8226 leukemia
ACHN renal = test system: ACHN renal
HOP-92 NSCLC = test system: HOP-92 NSCLC
SK-MEL-5 melanoma = test system: SK-MEL-5 melanoma
EKVX NSCLC = test system: EKVX NSCLC
NCI-H460 lung = test system: NCI-H460 lung
HS 578T breast = test system: HS 578T breast
UACC-257 melanoma = test system: UACC-257 melanoma
HCT-15 colon = test system: HCT-15 colon
NCI-H23 lung = test system: NCI-H23 lung
OVCAR-5 ovarian = test system: OVCAR-5 ovarian
M14 melanoma = test system: M14 melanoma
IGROV1 ovarian = test system: IGROV1 ovarian
SF-295 CNS = test system: SF-295 CNS
SNB-19 CNS = test system: SNB-19 CNS

O=C1/C=C/[C@@H](O)[C@@H]2C[C@@H](O)C[C@H]2/C=C/CCC[C@H](CCOCc2ccccc2)O1
GI50 (MALME-3M melanoma): 36.5 nM | TGI (MALME-3M melanoma): 428 nM | GI50 (OVCAR-8 ovarian): 52.3 nM | GI50 (RXF 393 renal): < 13.9 nM | TGI (RXF 393 renal): 43.6 nM | GI50 (MCF7 breast): 39.9 nM | TGI (MCF7 breast): 177 nM | GI50 (SF-539 CNS): 112 nM | TGI (SF-539 CNS): > 100000 nM | GI50 (OVCAR-3 ovarian): 39 nM | TGI (OVCAR-3 ovarian): 187 nM | GI50 (OVCAR-4 ovarian): 64.3 nM | TGI (OVCAR-4 ovarian): > 41200 nM | GI50 (TK-10 renal): 186 nM | TGI (TK-10 renal): 658 nM | GI50 (NCI-H522 lung): 234 nM | TGI (NCI-H522 lung): 577 nM | GI50 (SN12C renal): 272 nM | TGI (SN12C renal): > 100000 nM | GI50 (786-0 renal): 22.3 nM | TGI (786-0 renal): 53.7 nM | GI50 (A549 NSCLC): 66 nM | TGI (A549 NSCLC): > 100000 nM | GI50 (LOX IMVI melanoma): 35.2 nM | TGI (LOX IMVI melanoma): 168 nM | GI50 (DU-145 prostate): 412 nM | TGI (DU-145 prostate): > 100000 nM | GI50 (RPMI-8226 leukemia): 297 nM | TGI (RPMI-8226 leukemia): 20600 nM | GI50 (ACHN renal): 317 nM | TGI (ACHN renal): > 100000 nM | GI50 (HOP-92 NSCLC): 234 nM | TGI (HOP-92 NSCLC): 909 nM | GI50 (SK-MEL-5 melanoma): < 13.4 nM | TGI (SK-MEL-5 melanoma): 22.7 nM | GI50 (EKVX NSCLC): 141 nM | TGI (EKVX NSCLC): > 100000 nM | GI50 (NCI-H460 lung): 380 nM | TGI (NCI-H460 lung): > 100000 nM | GI50 (HS 578T breast): < 22.6 nM | TGI (HS 578T breast): > 100000 nM | GI50 (UACC-257 melanoma): 16.1 nM | TGI (UACC-257 melanoma): 2320 nM | GI50 (HCT-15 colon): 290 nM | TGI (HCT-15 colon): 12900 nM | GI50 (NCI-H23 lung): 105 nM | TGI (NCI-H23 lung): 714 nM | GI50 (OVCAR-5 ovarian): 246 nM | TGI (OVCAR-5 ovarian): > 100000 nM | GI50 (M14 melanoma): 40.3 nM | TGI (M14 melanoma): 13200 nM | GI50 (IGROV1 ovarian): 335 nM | TGI (IGROV1 ovarian): > 26300 nM | GI50 (SF-295 CNS): 51 nM | TGI (SF-295 CNS): > 100000 nM | GI50 (SNB-19 CNS): 138 nM
